# Results published in paper PMC9501280, “Anti-Inflammatory Activity of Soluble Epoxide Hydrolase Inhibitors Based on Selenoureas Bearing an Adamantane Moiety” (International Journal of Molecular Sciences, 2022).
# “Also recorded” adds a separate entry of the source.
# Legend:
# [1] = Solubility in sodium phosphate buffer; assay type: physicochemical; conditions: aqueous buffer, kinetic from dmso stock; sodium phosphate buffer (pH 7.4, 0.1 M) containing 1% DMSO
# Procedure: To our knowledge, no systematic studies of selenoureas as sEH inhibitors have been performed previously. The potency of the compounds was determined against the human recombinant sEH and their solubility assessed in phosphate-buffered saline (Table 1).
# [2] = Antiradical activity in nonenzymatic quinoid oxidation of adrenaline; conditions: adrenaline autoxidation without compound = 100%; initial concentration 25 µM
# Procedure: The antiradical activity of compounds 4a–g and 5a in the reaction of nonenzymatic quinoid oxidation of adrenaline (1-(3,4-dioxyphenyl)-2-methylaminoethanol) in alkaline bicarbonate buffer was evaluated. As a result of this reaction, not only the superoxide anion radical is formed, but also radicals of carbonate–bicarbonate anions, which makes it possible to reveal the total antiradical activity of potential antioxidants. […] Thus, we confirmed the antiradical activity of compounds 4a–g and 5a with respect to O2^–• generated in enzymatic and nonenzymatic model systems.
# SOD-protective activity of the biopreparation was the ability to utilize the superoxide anion radical O2^–•, as determined by the method of Sirota. A cytosolic fraction of the Russian sturgeon liver homogenate was used as the source of SOD. First, the sturgeon liver was washed with cold 0.2 M Tris (tris (hydroxymethyl) aminomethane) buffer (pH 7.8) to remove any traces of blood. All of the procedures were performed at a temperature of 0–4 °C. Next, a homogenate was obtained using a Potter homogenizer (Thomas Scientific, Swedesboro, NJ, USA) in 0.2 M Tris buffer at a ratio of 1:10. The homogenate was then centrifuged for 10 min at 1000× g to remove partially destroyed cells and nuclei. The resulting supernatant contained the enzymes of the cytosolic fraction of the liver homogenate, including the SOD. Here, 10 µL of the biopreparation was added to a cuvette with 200 µL of bicarbonate buffer (pH 10.65), 10 µL of the tested compound (initial concentrations of these compounds 25 µM) and 10 µL of 0.1% adrenaline solution and was thoroughly and quickly mixed. The rate of adrenaline oxidation without and in the presence of the biopreparation was evaluated by the change in optical density, measured at 347 nm for 3 min. The decrease in the rate of the process in the presence of the biopreparation was used to characterize the SOD-protective activity.
# [3] = Nitric oxide radical scavenging assay (sodium nitroprusside, Griess); conditions: sample solution 0.5 mM, sodium nitroprusside 5 mM, 150 min
# Procedure: The activity of compounds 4a–g and 5a with respect to NO^• generated from sodium nitroprusside, which further interacts with dissolved oxygen to form nitrite ions measured using the Griss reagent, was investigated.
# Sodium nitroprusside (SNP) dissolved in aqueous solution at physiological pH 7.2 can generate nitric oxide whose level can be measured by the Griess reaction. Sample solution (50 µL, 0.5 mM) was mixed with SNP (50 µL, 5 mM) in phosphate buffer at pH 7.4 (0.2 M), followed by an incubation at room temperature for 150 min. Similarly, a blank was prepared by adding the sample solution in phosphate buffer without SNP. Griess reagent (solutions of 0.33% sulfanilic acid and 0.1% N-(1-naphthyl) ethylenediamine (NED) (C12H14N2) in 20% glacial acetic acid; 1:1) (100 µL) was added to the incubated sample and allowed to stand for 30 min. Absorbance values of the blank and samples were measured at 548 nm. The absorbance of the blank was then subtracted from that of the sample. Results were expressed as %inhibition. Inhibition I (%) = [(A0 − A1)/A0] × 100, where A1 is the absorbance in the presence of the testing compound, and A0 is the absorbance of the blank solution. All experiments were performed three times.
# [4] = ABTS radical cation scavenging
# Procedure: Thus, at the further steps, the complex investigation of the target compounds’ ability to interact with protons, electrons, and radicals was conducted.
# [5] = Superoxide radical anion formation by xanthine oxidase (NBT assay); assay type: biochemical; conditions: sample solution 5 mM in DMSO
# Procedure: The superoxide anion radical scavenging activity of derivatives 4a–g and 5a was evaluated by the ability to inhibit the reduction of nitro blue tetrazolium (NBT) to blue formazan by trapping O2^•− generated by xanthine oxidase in the oxidation of hypoxanthine to uric acid.
# EDTA, xanthine, bovine serum albumin, nitro blue tetrazolium and xanthine oxidase (25 MU) were purchased from Sigma Aldrich (Burlington, MA, USA). The superoxide anions were generated enzymatically by the xanthine oxidase system. The reaction mixture consisted of 2.70 mL of 40 mM sodium carbonate buffer containing 0.1 mM EDTA (pH 10.0), 0.06 mL of 10 mM xanthine, 0.03 mL of 0.5% bovine serum albumin, 0.03 mL of 2.5 mM nitro blue tetrazolium and 0.06 mL of the sample solution in DMSO at the concentration of 5 mM. An amount of 0.12 mL of xanthine oxidase (0.04 units) was added to the mixture at 25 °C, and the absorbance at 560 nm (by formation of blue formazan) was measured by a microplate spectrophotometer for 60 s. A control experiment was carried out by replacing the sample solution with the same amount of DMSO.
# Inhibition I (%) = [(1 − Ai/A0) × 100%], where Ai is the absorbance in the presence of the testing compound, and A0 is the absorbance of the blank solution. All experiments were performed three times.
Compound,solubility [1],"% Inhibition, Antiradical Activity (O2–•) [2]",% Inhibition NO• [3],% Inhibition ABTS+• [4],% Inhibition NBT [5]
"[Se]=C(NCC12CC3CC(CC(C3)C1)C2)Nc1ccccc1 [4b, 1-[(Adamantan-1-yl)methyl]-3-phenylselenourea]",110 ± 20 µM,19.37 ± 0.88%,20.57 ± 1.42%,53.01 ± 1.62%,35.20 ± 1.46%
"[Se]=C(NCCC12CC3CC(CC(C3)C1)C2)Nc1ccccc1 [4d, 1-[2-(Adamantan-1-yl)ethyl]-3-phenylselenourea]",70 ± 10 µM,9.97 ± 0.41%,31.36 ± 2.48%,64.55 ± 2.30%,6.85 ± 1.18%
"[Se]=C(NCc1ccccc1)NC12CC3CC(CC(C3)C1)C2 [5a, 1-(Adamantan-1-yl)-3-benzylselenourea]",125 ± 20 µM,43.79 ± 0.02%,non active,,56.52 ± 0.05%
"[Se]=C(Nc1ccccc1)NC1C2CC3CC(C2)CC1C3 (stereo not shown) [4g, 1-(Adamantan-2-yl)-3-phenylselenourea]",80 ± 20 µM,24.66 ± 1.33%,27.91 ± 1.50%,47.21 ± 1.20%,14.26 ± 1.48%
"[Se]=C(Nc1ccccc1)NC12CC3CC(CC(C3)C1)C2 [4a, 1-(Adamantan-1-yl)-3-phenylselenourea]",55 ± 10 µM,35.49 ± 0.03%,non active,,29.17 ± 0.01%
"CC12CC3CC(C)(C1)CC(NC(=[Se])Nc1ccccc1)(C3)C2 [4f, 1-(3,5-Dimethyladamantan-1-yl)-3-phenylselenourea]",100 ± 10 µM,20.95 ± 1.20%,7.27 ± 0.72%,do not exhibit antiradical properties; also recorded: nonactive,10.93 ± 1.05%
"CC(NC(=[Se])Nc1ccccc1)C12CC3CC(CC(C3)C1)C2 (stereo not shown) [4c, 1-[1-(Adamantan-1-yl)ethyl]-3-phenylselenourea]",50 ± 5 µM,21.64 ± 2.29%,54.35 ± 2.38%,77.44 ± 1.78%,6.52 ± 0.50%
"[Se]=C(Nc1ccccc1)Nc1ccc(C23CC4CC(CC(C4)C2)C3)cc1 [4e, 1-[4-(Adamantan-1-yl)phenyl]-3-phenylselenourea]",30 ± 10 µM,23.68 ± 0.03%,2.63 ± 0.99%,,4.75 ± 0.50%
